Measured values: patent publication US20220370440A1 (Lead Discovery Center GmbH, priority 2018, published 2022)

What was measured:
HER2 INS YVMA = target: T1, HER2 INS YVMA (Homo sapiens, UniProt P04626, INS775YVMA); assay: Lance Kinase Activity Assay, HER2 INS YVMA (Her2 Exon 20 INSYVMA Lance); format: biochemical; settings: biochemical Lance assay
T1 construct: purchased DPF
Method in brief: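 Kinase phosphorylates a ULight-labelled peptide substrate; Eu anti-phospho antibody gives TR-FRET (ex 340 nm, em 665/615 nm). Compounds in 1:3 serial dilution over 8 steps, reaction started with ATP, 1 h at room temperature, stopped with EDTA-containing detection mix for 1 h. IC50 from sigmoidal dose-response curves.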

[1] = target: Her2 Exon 20 INSYVMA Ba/F3 (Homo sapiens, UniProt P04626, DUP772-775, cells depend on it); assay: Her2 Exon 20 INSYVMA Ba/F3 CellTiter-Glo; format: cell-based; settings: CellTiter-Glo, 72 h, read-out: Her2 Exon 20 INSYVMA Ba/F3 CTG IC50
Method in brief: (§1)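 Seed Ba/F3 cells; 24 h, 37 °C/5% CO2. Add cpds in DMSO, multiple concs; 72 h. CellTiter-Glo, 10 min RT, luminescence. IC50 by curve fit. Z′ ≥0.5 from DMSO vs 10 μM staurosporine.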

[2] = target: EGFR Exon 20 INSNPH Ba/F3 (Homo sapiens, UniProt P00533, DUP771-773, cells depend on it); assay: EGFR Exon 20 INSNPH Ba/F3 CellTiter-Glo; format: cell-based; settings: CellTiter-Glo, 72 h, read-out: EGFR Exon 20 INSNPH Ba/F3 CTG IC50
Method in brief: as §1

EGFR T790ML858R = EGFR T790ML858R (Homo sapiens, UniProt P00533, L858R/T790M); assay: EGFR T790ML858R Lance assay; format: biochemical
Procedure: (§2) Inhibition is indicated as […] [nM] (“−”=not measured). Compounds having an activity designated as “A” provided an IC50≤100 nM; compounds having an activity designated as “B” provided an 100 nM<IC50≤500 nM; compounds having an activity designated as “C” provided an 500 nM<IC50≤1000 nM; compounds having an activity designated as “D” provided an 1000 nM<IC50≤100000 nM; and compounds having an activity designated as “E” provided an IC50>10000 nM.

EGFR wt = EGFR wt (Homo sapiens, UniProt P00533); assay: EGFR wt Lance assay; format: biochemical
Procedure: as §2

H1975 = H1975 CellTiter-Glo; format: cell-based; settings: Homo sapiens, NCI-H1975; 72 h compound incubation; read-out: H1975 CTG IC50
Method in brief: (§3)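 Antiproliferative IC50 values come from a 72 h treatment of cultured cells, measured by CellTiter-Glo ATP luminescence. Only runs with a Z′-factor of at least 0.5, calculated from 16 vehicle and 16 Staurosporine (10 μM) control wells, are reported.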

H1781 = H1781 CellTiter-Glo; format: cell-based; settings: NCI-H1781; 72 h compound incubation; read-out: H1781 CTG IC50
Procedure: 2. Measurement of Cellular Activity
The CellTiter-Glo Luminescent Cell Viability Assay (Promega) is a homogeneous method of determining the number of viable cells in culture. It is based on quantification of ATP, indicating the presence of metabolically active cells. Cells are seeded on day 1 at cell numbers that assure assay linearity and optimal signal intensity. After incubation for 24 h in humidified chambers at 37° C. and 5% CO2, compounds in DMSO are added at different concentrations. Cells are further incubated for 72 h at 37° C. and 5% CO2. Cells treated with the compound vehicle DMSO are used as positive controls and cells treated with 10 μM Staurosporine serve as negative controls. At day 5 the CellTiter Glo Reagent is prepared according to the instructions of the kit (Promega Inc.): Reagent is mixed 1:1 with cell culture medium. Thereon, mixture and assay plates are equilibrated at room temperature for 20 min. Equal volumes of the reagent-medium-mixture is added to the volume of culture medium present in each well. The plates are mixed at ˜200 rpm for 2 minutes on an orbital shaker. The microplates are then incubated at room temperature for 10 minutes for stabilization of the luminescent signal. Following incubation the luminescence is recorded on a Victor microplate reader (Perkin Elmer) using a 200 ms integration time. The data is then analyzed with Excel using the XLFIT Plugin (dose response Fit 205) for IC50-determination. As quality control the Z′-factor is calculated from 16 positive and negative control values. Only assay results showing a Z′-factor ≥0.5 are used for further analysis.
as §2

A431 = A431 CellTiter-Glo; format: cell-based; settings: Homo sapiens, A-431; 72 h compound incubation; read-out: A431 CTG IC50
Method in brief: as §3

[3] = Metabolic stability in mouse liver microsomes without cofactor NADPH; format: in vitro ADME; settings: 3 μM test compound, mouse liver microsomes, without NADPH, 50 min, 37° C., LC-MS/MS
Method in brief: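 Test compound (3 μM) was incubated with mouse liver microsomes without NADPH at 37° C. Depletion was followed by LC-MS/MS over time up to 50 min.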

T1 sequence (P04626 with tags, fused parts or gaps INS775YVMA): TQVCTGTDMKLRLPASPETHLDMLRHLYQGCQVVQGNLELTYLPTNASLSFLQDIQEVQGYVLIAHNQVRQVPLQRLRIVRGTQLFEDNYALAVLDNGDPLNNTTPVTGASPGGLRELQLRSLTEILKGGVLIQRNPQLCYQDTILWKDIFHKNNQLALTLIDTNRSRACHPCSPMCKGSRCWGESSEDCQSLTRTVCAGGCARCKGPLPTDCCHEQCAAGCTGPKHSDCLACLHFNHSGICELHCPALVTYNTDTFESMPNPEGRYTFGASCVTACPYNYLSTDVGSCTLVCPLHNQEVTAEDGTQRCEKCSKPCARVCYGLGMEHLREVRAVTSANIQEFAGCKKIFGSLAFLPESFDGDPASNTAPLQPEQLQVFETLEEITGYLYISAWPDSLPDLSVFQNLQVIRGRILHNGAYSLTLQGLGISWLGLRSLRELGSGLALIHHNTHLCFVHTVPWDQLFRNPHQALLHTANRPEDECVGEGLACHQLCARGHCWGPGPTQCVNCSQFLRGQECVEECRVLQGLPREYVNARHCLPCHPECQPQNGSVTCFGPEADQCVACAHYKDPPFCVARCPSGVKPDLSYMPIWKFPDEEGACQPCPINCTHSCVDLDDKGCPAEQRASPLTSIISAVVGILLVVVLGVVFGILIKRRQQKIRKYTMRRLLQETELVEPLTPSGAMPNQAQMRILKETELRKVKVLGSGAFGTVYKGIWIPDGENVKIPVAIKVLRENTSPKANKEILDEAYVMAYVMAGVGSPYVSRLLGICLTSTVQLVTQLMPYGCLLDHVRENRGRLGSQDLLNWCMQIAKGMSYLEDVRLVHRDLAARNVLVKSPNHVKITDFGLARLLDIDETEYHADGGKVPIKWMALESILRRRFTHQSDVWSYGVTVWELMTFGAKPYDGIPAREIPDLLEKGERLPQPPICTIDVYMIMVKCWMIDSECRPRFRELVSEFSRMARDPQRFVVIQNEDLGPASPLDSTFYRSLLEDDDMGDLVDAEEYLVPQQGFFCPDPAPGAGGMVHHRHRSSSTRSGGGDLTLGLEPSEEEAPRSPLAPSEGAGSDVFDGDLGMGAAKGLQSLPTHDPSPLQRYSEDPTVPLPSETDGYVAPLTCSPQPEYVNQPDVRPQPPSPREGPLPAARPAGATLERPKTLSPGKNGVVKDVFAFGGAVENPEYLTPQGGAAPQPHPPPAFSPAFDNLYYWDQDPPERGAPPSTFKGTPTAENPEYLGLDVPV
Chain of EGFR wt (P00533 25-1210): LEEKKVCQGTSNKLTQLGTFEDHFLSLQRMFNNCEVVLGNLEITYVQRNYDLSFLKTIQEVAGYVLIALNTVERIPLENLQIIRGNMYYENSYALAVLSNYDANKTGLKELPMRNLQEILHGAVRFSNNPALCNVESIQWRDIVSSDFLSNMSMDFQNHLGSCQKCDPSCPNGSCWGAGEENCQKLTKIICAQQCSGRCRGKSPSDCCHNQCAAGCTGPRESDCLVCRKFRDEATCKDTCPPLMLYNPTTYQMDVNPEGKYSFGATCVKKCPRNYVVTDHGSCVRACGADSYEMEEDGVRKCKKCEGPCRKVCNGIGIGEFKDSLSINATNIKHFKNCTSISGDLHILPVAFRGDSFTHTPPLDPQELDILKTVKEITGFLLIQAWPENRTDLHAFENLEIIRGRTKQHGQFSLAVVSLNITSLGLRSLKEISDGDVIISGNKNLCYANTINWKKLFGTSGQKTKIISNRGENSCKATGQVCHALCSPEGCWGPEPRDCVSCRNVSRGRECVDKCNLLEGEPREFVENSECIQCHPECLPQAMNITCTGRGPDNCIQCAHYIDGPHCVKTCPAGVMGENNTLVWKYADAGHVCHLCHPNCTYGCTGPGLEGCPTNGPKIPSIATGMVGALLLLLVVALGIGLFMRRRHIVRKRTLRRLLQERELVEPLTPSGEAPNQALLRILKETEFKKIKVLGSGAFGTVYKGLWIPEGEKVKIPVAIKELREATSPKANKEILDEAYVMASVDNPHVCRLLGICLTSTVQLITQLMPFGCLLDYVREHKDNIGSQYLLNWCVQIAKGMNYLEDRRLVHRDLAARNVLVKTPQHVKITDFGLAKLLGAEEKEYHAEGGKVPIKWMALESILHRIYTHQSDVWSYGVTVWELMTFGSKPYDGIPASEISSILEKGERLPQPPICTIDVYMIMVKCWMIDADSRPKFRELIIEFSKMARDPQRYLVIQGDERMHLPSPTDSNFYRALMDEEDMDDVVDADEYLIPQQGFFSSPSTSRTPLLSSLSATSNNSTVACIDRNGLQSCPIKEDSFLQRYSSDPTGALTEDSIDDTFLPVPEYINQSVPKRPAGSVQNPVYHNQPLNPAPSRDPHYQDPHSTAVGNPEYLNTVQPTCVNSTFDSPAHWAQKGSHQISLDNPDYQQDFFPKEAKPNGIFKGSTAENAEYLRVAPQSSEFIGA
Chain of EGFR T790ML858R (P00533 25-1210 T790M/L858R): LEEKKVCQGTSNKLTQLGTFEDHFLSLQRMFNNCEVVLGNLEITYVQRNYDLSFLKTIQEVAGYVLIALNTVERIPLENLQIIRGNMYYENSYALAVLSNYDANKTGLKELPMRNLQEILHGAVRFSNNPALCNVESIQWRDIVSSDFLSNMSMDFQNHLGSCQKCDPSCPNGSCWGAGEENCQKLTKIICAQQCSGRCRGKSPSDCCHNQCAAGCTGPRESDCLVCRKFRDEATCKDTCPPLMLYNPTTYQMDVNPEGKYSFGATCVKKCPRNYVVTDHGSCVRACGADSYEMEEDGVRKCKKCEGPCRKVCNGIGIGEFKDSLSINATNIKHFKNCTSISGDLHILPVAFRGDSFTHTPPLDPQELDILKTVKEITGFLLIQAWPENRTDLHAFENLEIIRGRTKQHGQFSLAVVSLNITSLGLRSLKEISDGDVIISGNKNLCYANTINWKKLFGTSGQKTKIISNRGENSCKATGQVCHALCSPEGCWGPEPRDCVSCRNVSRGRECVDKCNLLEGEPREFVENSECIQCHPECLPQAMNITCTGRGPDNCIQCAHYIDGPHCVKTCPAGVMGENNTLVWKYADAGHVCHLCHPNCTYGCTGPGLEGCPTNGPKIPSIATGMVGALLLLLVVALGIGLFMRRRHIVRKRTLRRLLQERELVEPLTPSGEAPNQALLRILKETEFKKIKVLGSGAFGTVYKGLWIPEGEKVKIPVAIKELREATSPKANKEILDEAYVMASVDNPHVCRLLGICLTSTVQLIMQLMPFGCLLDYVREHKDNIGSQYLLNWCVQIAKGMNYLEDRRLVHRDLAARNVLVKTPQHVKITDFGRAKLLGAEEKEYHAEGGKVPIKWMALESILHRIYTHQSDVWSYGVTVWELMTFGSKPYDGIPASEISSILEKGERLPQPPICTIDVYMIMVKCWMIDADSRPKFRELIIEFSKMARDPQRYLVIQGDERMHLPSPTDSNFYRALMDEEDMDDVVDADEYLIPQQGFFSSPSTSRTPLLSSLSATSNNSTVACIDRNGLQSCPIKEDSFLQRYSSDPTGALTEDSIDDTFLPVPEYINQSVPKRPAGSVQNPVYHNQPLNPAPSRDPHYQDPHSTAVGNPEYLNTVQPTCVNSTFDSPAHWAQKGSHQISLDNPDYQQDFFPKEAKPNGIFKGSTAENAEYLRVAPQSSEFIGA
Chain of Her2 Exon 20 INSYVMA Ba/F3 (P04626 with tags, fused parts or gaps DUP772-775): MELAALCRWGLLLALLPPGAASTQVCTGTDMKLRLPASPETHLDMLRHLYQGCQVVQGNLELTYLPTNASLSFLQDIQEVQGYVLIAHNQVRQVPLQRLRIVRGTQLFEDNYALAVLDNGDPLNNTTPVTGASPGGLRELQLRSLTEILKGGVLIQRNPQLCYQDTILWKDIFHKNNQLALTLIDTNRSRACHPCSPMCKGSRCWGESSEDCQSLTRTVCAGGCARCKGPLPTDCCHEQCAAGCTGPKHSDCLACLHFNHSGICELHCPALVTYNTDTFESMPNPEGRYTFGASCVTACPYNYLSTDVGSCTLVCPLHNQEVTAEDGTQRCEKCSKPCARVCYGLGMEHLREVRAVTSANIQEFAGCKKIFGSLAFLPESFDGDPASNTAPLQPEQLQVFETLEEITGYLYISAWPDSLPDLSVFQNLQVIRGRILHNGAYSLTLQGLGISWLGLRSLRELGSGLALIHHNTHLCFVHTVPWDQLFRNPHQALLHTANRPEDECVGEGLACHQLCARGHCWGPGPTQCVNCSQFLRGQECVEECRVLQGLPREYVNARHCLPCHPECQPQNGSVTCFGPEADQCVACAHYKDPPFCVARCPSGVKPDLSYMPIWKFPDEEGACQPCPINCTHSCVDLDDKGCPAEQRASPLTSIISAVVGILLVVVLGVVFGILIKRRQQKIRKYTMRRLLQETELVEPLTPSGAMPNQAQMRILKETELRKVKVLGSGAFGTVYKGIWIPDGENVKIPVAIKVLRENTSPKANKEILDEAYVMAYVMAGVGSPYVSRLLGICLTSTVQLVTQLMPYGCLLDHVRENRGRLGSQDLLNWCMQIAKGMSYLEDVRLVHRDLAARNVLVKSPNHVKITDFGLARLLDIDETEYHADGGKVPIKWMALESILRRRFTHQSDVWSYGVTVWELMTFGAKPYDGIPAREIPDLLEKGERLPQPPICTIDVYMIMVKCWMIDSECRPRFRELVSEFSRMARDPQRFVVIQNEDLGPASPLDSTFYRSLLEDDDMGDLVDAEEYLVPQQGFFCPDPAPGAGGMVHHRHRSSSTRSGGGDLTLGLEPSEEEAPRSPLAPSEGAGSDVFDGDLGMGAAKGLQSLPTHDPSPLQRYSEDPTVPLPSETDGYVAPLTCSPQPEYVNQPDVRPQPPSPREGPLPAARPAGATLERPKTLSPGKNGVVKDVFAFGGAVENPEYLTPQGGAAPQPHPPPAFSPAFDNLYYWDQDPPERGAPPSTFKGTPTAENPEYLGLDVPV

| Structure (SMILES) | IC50 (HER2 INS YVMA) | GI50 [1] | GI50 [2] | IC50 (EGFR T790ML858R) | IC50 (EGFR wt) | IC50 (H1975) | IC50 (H1781) | IC50 (A431) | Stability in presence of mouse liver microsomes without cofactor NADPH [% remaining after 50 min] [3] |
| --- | --- | --- | --- | --- | --- | --- | --- | --- | --- |
| C=CC(=O)Nc1cc(-c2c(-c3cccc(OCCCN4CCN(CC)CC4)c3)[nH]c3nccc(Cl)c23)ccc1C [Example 25, N-(5-(4-chloro-2-(3-(3-(4-ethylpiperazin-1-yl)propoxy)phenyl)-1H-pyrrolo[2,3-b]pyridin-3-yl)-2-methylphenyl)acrylamide] | ≤ 0.1 µM | 0.1 to 0.5 µM | 0.1 to 0.5 µM | ≤ 0.1 µM | ≤ 0.1 µM | ≤ 0.1 µM | 0.5 to 1 µM | 0.1 to 0.5 µM | >99 % remaining after 50 min |
| C=CC(=O)Nc1cc(-c2c(-c3ccc(N4CCNCC4)cc3)[nH]c3nccc(Cl)c23)ccc1C [Example 96, N-(5-(4-chloro-2-(4-(piperazin-1-yl)phenyl)-1H-pyrrolo[2,3-b]pyridin-3-yl)-2-methylphenyl)acrylamide 2,2,2-trifluoroacetate] | ≤ 0.1 µM | 0.1 to 0.5 µM | 0.1 to 0.5 µM | ≤ 0.1 µM | ≤ 0.1 µM | ≤ 0.1 µM | 0.1 to 0.5 µM | 0.1 to 0.5 µM | 92 % remaining after 50 min |
| C=CC(=O)N1CCCc2ccc(-c3c(-c4ccc(N5CCN(C)CC5)cc4)[nH]c4nccc(Cl)c34)cc21 [Example 86, 1-(7-(4-chloro-2-(4-(4-methylpiperazin-1-yl)phenyl)-1H-pyrrolo[2,3-b]pyridin-3-yl)-3,4-dihydroquinolin-1(2H)-yl)prop-2-en-1-one 2,2,2-trifluoroacetate] | ≤ 0.1 µM | 0.5 to 1 µM | 0.5 to 1 µM | ≤ 0.1 µM | ≤ 0.1 µM | 0.1 to 0.5 µM | 1 to 100 µM | 1 to 100 µM | >99 % remaining after 50 min |
| C=CC(=O)Nc1cc(-c2c(-c3ccc(C4CCN(C)CC4)cc3)[nH]c3nccc(Cl)c23)ccc1C [Example 3, N-(5-(4-chloro-2-(4-(1-methylpiperidin-4-yl)phenyl)-1H-pyrrolo[2,3-b]pyridin-3-yl)-2-methylphenyl)acrylamide] | ≤ 0.1 µM | ≤ 0.1 µM | ≤ 0.1 µM | ≤ 0.1 µM | ≤ 0.1 µM | ≤ 0.1 µM | 0.1 to 0.5 µM | 0.1 to 0.5 µM | >99 % remaining after 50 min |
| C=CC(=O)Nc1cc(-c2c(-c3ccc(OCCCN4CCN(CC)CC4)cc3)[nH]c3nccc(Cl)c23)ccc1C [Example 23, N-(5-(4-chloro-2-(4-(3-(4-ethylpiperazin-1-yl)propoxy)phenyl)-1H-pyrrolo[2,3-b]pyridin-3-yl)-2-methylphenyl)acrylamide] | ≤ 0.1 µM | 0.1 to 0.5 µM | 0.1 to 0.5 µM | ≤ 0.1 µM | ≤ 0.1 µM | ≤ 0.1 µM | 0.1 to 0.5 µM | 0.1 to 0.5 µM | >99 % remaining after 50 min |
| C=CC(=O)Nc1cc(-c2c(-c3ccc(C(=O)N4CCOCC4)cc3)[nH]c3nccc(Cl)c23)ccc1C [Example 11, N-(5-(4-chloro-2-(4-(morpholine-4-carbonyl)phenyl)-1H-pyrrolo[2,3-b]pyridin-3-yl)-2-methylphenyl)acrylamide] | ≤ 0.1 µM | 0.1 to 0.5 µM | 0.1 to 0.5 µM | ≤ 0.1 µM | ≤ 0.1 µM | ≤ 0.1 µM | 0.5 to 1 µM | 0.1 to 0.5 µM | >99 % remaining after 50 min |
| C=CC(=O)Nc1cc(-c2c(-c3ccc(CN4CCN(C)CC4)cc3)[nH]c3nccc(Cl)c23)ccc1C [Example 1, N-(5-(4-chloro-2-(4-((4-methylpiperazin-1-yl)methyl)phenyl)-1H-pyrrolo[2,3-b]pyridin-3-yl)-2-methylphenyl)acrylamide 2,2,2-trifluoroacetate] | ≤ 0.1 µM | 0.1 to 0.5 µM | ≤ 0.1 µM | ≤ 0.1 µM | ≤ 0.1 µM | ≤ 0.1 µM | 0.1 to 0.5 µM | 0.1 to 0.5 µM | >99 % remaining after 50 min |
| C=CC(=O)Nc1cc(-c2c(-c3cccc(CN4CCN(C)CC4)c3)[nH]c3nccc(Cl)c23)ccc1C [Example 16, N-(5-(4-chloro-2-(3-((4-methylpiperazin-1-yl)methyl)phenyl)-1H-pyrrolo[2,3-b]pyridin-3-yl)-2-methylphenyl)acrylamide] | ≤ 0.1 µM | 0.1 to 0.5 µM | 0.1 to 0.5 µM | ≤ 0.1 µM | ≤ 0.1 µM | ≤ 0.1 µM | 0.5 to 1 µM | 0.5 to 1 µM | >99 % remaining after 50 min |
| C=CC(=O)Nc1cc(-c2c(-c3ccc(C4CCN(C)CC4)cc3)[nH]c3nccc(OC)c23)ccc1C [Example 73, N-(5-(4-methoxy-2-(4-(1-methylpiperidin-4-yl)phenyl)-1H-pyrrolo[2,3-b]pyridin-3-yl)-2-methylphenyl)acrylamide] | ≤ 0.1 µM | ≤ 0.1 µM | ≤ 0.1 µM | ≤ 0.1 µM | ≤ 0.1 µM | ≤ 0.1 µM | 0.1 to 0.5 µM | 0.1 to 0.5 µM | 99 % remaining after 50 min |
| C=CC(=O)Nc1cc(-c2c(-c3ccc(CCN(C)C)cc3)[nH]c3nccc(Cl)c23)ccc1C [Example 4, N-(5-(4-chloro-2-(4-(2-(dimethylamino)ethyl)phenyl)-1H-pyrrolo[2,3-b]pyridin-3-yl)-2-methylphenyl)acrylamide] | ≤ 0.1 µM | 0.1 to 0.5 µM | 0.1 to 0.5 µM | ≤ 0.1 µM | ≤ 0.1 µM | ≤ 0.1 µM | 0.1 to 0.5 µM | 0.1 to 0.5 µM | >99 % remaining after 50 min |
| C=CC(=O)Nc1cc(-c2c(-c3ccc(OCCN(C)C)cc3)[nH]c3nccc(Cl)c23)ccc1C [Example 18, N-(5-(4-chloro-2-(4-(2-(dimethylamino)ethoxy)phenyl)-1H-pyrrolo[2,3-b]pyridin-3-yl)-2-methylphenyl)acrylamide] | ≤ 0.1 µM | 0.1 to 0.5 µM | ≤ 0.1 µM | ≤ 0.1 µM | ≤ 0.1 µM | ≤ 0.1 µM | 0.1 to 0.5 µM | 0.1 to 0.5 µM | 90 % remaining after 50 min |
